Results: ChEMBL document CHEMBL1140625 (Bioorg Med Chem, 2007)

Target: Human immunodeficiency virus type 1 integrase (Human immunodeficiency virus 1, UniProt Q7ZJM1)
Test: Inhibition of HIV1 integrase

Sequence of Human immunodeficiency virus type 1 integrase (Q7ZJM1 whole entry): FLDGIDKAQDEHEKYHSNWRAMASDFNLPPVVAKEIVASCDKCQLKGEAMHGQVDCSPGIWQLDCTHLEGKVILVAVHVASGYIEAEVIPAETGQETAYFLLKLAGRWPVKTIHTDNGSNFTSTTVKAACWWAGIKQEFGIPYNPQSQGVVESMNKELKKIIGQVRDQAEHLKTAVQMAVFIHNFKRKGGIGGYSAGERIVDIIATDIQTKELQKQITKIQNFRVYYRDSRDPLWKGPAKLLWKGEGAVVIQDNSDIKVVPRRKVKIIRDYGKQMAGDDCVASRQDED

Structure (SMILES)	IC50
O=C(/C=C(\O)c1cc[nH]c1)c1ccc(Cc2ccc(F)cc2)o1	< 1000 nM
O=C(/C=C(\O)c1nc[nH]n1)c1ccc(Cc2ccc(F)cc2)[nH]1	< 1000 nM
